In patent publication US9458465B2, “Compositions and methods to modulate cell membrane resealing” (RUTGERS, THE STATE UNIVERSITY OF NEW JERSEY, priority 2007, dated 2016):
Changes are numbered by the printed parent chain. Names may count otherwise.

Experiments:
[1] = system: FDB muscle fibers from wild type (WT) mice; experiment: FM1-43 dye entry after UV-laser damage, wild type FDB muscle fibers; assay type: cell-based
Procedure: (§1) FIG. 20. Protective effect of zinc on membrane repair is lost in mg53−/− skeletal muscle. (a) individual flexor digitorum brevis (FDB) muscle fibers were isolated from wild type (WT) mice (3-6 months). A strong UV laser was applied to the FDB fiber that caused local damage to the muscle (arrow). Entry of FM1-43 fluorescent dye (2.5 μM) was used as an indicator for the measurement of membrane repair capacity. The images were taken 200 s following UV irradiation (control). […] (d) Schematic diagram of zinc-binding motifs in MG53. The amino-terminus of MG53 contains two putative zinc-binding motifs: one located at the RING motif (a.a. 1-56, human cDNA), and the other located at the B-box motif (a.a. 86-117, human cDNA). The specific amino acids that participate in zinc-binding are indicated.
as §1, with “Protective” for “FIG. 20. Protective”, “To access membrane repair capacity,” for “(a)”, “months) (FIG. 20a).” for “months).”, “Summary data for panel a and b (FIG. 20c). […]” for “(d)”, “indicated (FIG. 20d).” for “indicated.”

[2] = system: FDB muscle fibers from mg53−/− mice; experiment: FM1-43 dye entry after UV-laser damage, mg53−/− FDB muscle fibers; assay type: cell-based
Procedure: as §1
as §1, with “Protective” for “FIG. 20. Protective”, “To access membrane repair capacity,” for “(a)”, “months) (FIG. 20a).” for “months).”, “Summary data for panel a and b (FIG. 20c). […]” for “(d)”, “indicated (FIG. 20d).” for “indicated.”

HEK293 cells = experiment: LDH release after glass microbead damage, HEK293; assay type: cell-based, human
Procedure: Recombinant MG53 can protect kidney cells from mechanical cell membrane damage. HEK293 cells (8×10^4) were treated with glass microbeads to induce mechanical damage (FIG. 37). Different does of recombinant human MG53 or vehicle control was applied to the samples when glass beads were added to the media. Cells were rotated on an orbital shaker and then the supernatant was analyzed for LDH levels.
(§2) Externally applied recombinant MG53 requires phosphatidylserine (PS) binding to reseal damaged membranes. HEK293 cells were treated with recombinant human MG53 or vehicle and them damaged by shaking in the presence of glass microbeads (black bars) (FIG. 40). Membrane damage is measured by LDH release from cells that is recorded by colormetric assay recorded at 488 nm. […] Thus, MG53 must be able to bind exposed PS on damaged cells in order to facilitate membrane repair. * p<0.05
as §2, with “HEK293” for “Externally applied recombinant MG53 requires phosphatidylserine (PS) binding to reseal damaged membranes. HEK293”, “41).” for “40).”

[3] = system: C2C12 cells expressing GFP-MG53; experiment: Repair of acute membrane damage: translocation to microelectrode injury site; assay type: cell-based, murine; conditions: for Membrane Repair (+Zn-HPT): 2 μM Zn-HPT; for Membrane Repair (−Zn-HPT): extracellular solution with nominal free zinc
Procedure: To follow the process of intracellular vesicle translocation associated with repair of acute membrane damage, GFP-MG53 fusion protein was expressed in C2C12 myoblast cells (FIG. 21a). […]
Cell culture—The C2C12 murine myoblast cell line used for all studies was purchased from the American Type Culture Collection (Manassas, Va.). Cells were grown in a humidified environment at 37° C. and 5% CO2 in DMEM medium for C2C12 or Ham's F12 medium for CHO cells supplemented with 10% fetal bovine serum, 100 units/ml penicillin and 100 ug/ml streptomycin. In order to induce myotube differentiation, C2C12 myoblasts were grown to confluence and the medium was switched to DMEM containing 2% horse serum, penicillin (100 U/ml), streptomycin (100 μg/ml). For transient transfections, C2C12 myoblasts or CHO cells were plated at 70% confluence in glass-bottom dishes. After 24 hours, cells were transfected with plasmids described above using GeneJammer reagent (Stratagene). Cells were visualized by live cell confocal imaging at 24-48 hours after transfection or at times indicated for individual experiments. In some experiments, C2C12 myoblasts were allowed to differentiate into myotubes for the indicated time before observation.
Live cell imaging—To monitor intracellular trafficking of GFP-MG53 either CHO or C2C12 cells were cultured in glass-bottom dishes (Bioptechs Inc.) and transfected with the plasmids described above. Fluorescence images (512×512) were captured at 3.18 s/frame using a BioRad 2100 Radiance laser scanning confocal microscope with a 63×1.3NA oil immersion objective.

mg53−/− myotubes = experiment: Membrane repair in transfected mg53−/− myotubes; assay type: cell-based, mice; conditions: transfected mg53−/− myotubes; UV injury
Description: The entry of FM4-64, a red-shifted variant of FM1-43, was used as an index of membrane repair capacity in mg53−/− myotubes transfected with GFP-MG53 and GFP-C242A. Following UV-bleaching of the green fluorescence, rapid translocation of GFP-MG53 took place at the injury site, whereas GFP-C242A remained static due to its defective oligomerization properties (FIG. 16E, 17A).
Similar defects with GFP-C29L were also observed in C2C12 myotubes (FIG. 18e, middle).

[4] = C2C12 cells, listed as GFP-C105S
[5] = C2C12 cells, listed as GFP-C29L/C105S

O=C([O-])CN(CCN(CC(=O)[O-])CC(=O)[O-])CC(=O)[O-].[Ca+2].[Na+].[Na+] [Ca-EDTA]
membrane repair capacity (FM1-43 dye entry) ([1]; WT muscle, Ca-EDTA 100 μM): compromised membrane repair capacity | membrane repair capacity ([2]; mg53−/− muscle, Ca-EDTA): did not produce any significant changes in membrane repair capacity

phosphatidylserine [phosphatidylserine (PS), reference compound]
effect on MG53 resealing of plasma membrane (HEK293 cells; simultaneous treatment with recombinant human MG53): can prevent resealing of plasma membrane

O[C@H](CS)[C@H](O)CS (racemic) [DTT, dithiothreitol, reference compound]
membrane resealing (entry of FM-143 dye) ([1]; isolated muscle fibers, DTT in the extracellular solution): prevents membrane resealing | translocation of GFP-MG53 toward the injury site ([3]; reduced extracellular environment (+DTT), 5 mM DTT): largely disrupted

c1ccc(CN(CCN(Cc2ccccn2)Cc2ccccn2)Cc2ccccn2)nc1 [TPEN, N,N,N,N-tetrakis(2-pyridyl-methyl)ethylenediamine]
membrane repair capacity (FM1-43 dye entry) ([1]; WT fibers, 40 μM TPEN): compromised membrane repair capacity | translocation of GFP-MG53 containing vesicles toward the mechanical injury site ([3]; 20 μM TPEN in the extracellular solution): completely abolished the translocation | membrane repair capacity (FM1-43 dye entry) ([2]; mg53−/− fibers, +TPEN): did not produce more entry of FM1-43 dye

Thimerosal [reference compound]
translocation of GFP-MG53 to injury sites ([3]; oxidizing agent Thimerosal in the extracellular solution): increased translocation

B1: C242A: MG53 mutant, conserved cysteine 242 mutated into alanine (protein)
chain: MSAAPGLLRQELSCPLCLQLFDAPVTAECGHSFCRACLIRVAGEPAADGTVACPCCQAPTRPQALSTNLQLSRLVEGLAQVPQGHCEEHLDPLSIYCEQDRTLVCGVCASLGSHRGHRLLPAAEAQARLKTQLPQQKMQLQEACMRKEKTVAVLEHQLVEVEETVRQFRGAVGEQLGKMRMFLAALESSLDREAERVRGDAGVALRRELSSLNSYLEQLRQMEKVLEEVADKPQTEFLMKFALVTSRLQKILSESPPPARLDIQLPVISDDFKFQVWKKMFRALMPALEELTFDPSSAHPSLVVSSSGRRVECSDQKAPPAGEDTRQFDKAVAVVAQQLLSQGEHYWEVEVGDKPRWALGVMAADASRRGRLHAVPSQGLWLLGLRDGKILEAHVEAKEPRALRTPERPPARIGLYLSFADGVLAFYDASNPDVLTPIFSFHERLPGPVYPIFDVCWHDKGKNAQPLLLVGPEQEQA
modifications: left off: large carriers
notes: MG53 mutant, conserved cysteine 242 mutated into alanine
entry of FM4-64 (membrane repair capacity) (mg53−/− myotubes): not able to restore membrane integrity following injury | sarcolemmal membrane repair function ([1]; overexpression in adult wt muscle fibers, compared with GFP-MG53): inhibited sarcolemmal membrane repair function | translocation to injury site and membrane repair function of GFP fusion protein ([3]; C2C12 cells, acute membrane damage): completely disrupted its ability to facilitate the membrane repair process

B2: C105S: MG53 single mutation of the B-box motif (protein)
chain: B1 chain with C105S, A242C
modifications: left off: large carriers
notes: MG53 single mutation of the B-box motif
Membrane Repair (+Zn-HPT) [3, 4]: partial rescue of the membrane repair capacity | Membrane Repair (−Zn-HPT) [3, 4]: could not move to the acute injury site

B3: C29L/C105S: MG53 double mutant of RING motif (C29L) and B-box motif (C105S) (protein)
chain: B1 chain with C29L, C105S, A242C
modifications: left off: large carriers
Membrane Repair (+Zn-HPT) [3, 5]: completely defective in repair of acute membrane damage | Membrane Repair (−Zn-HPT) [3, 5]: completely defective in repair of acute membrane damage

B4: Annexin V: a phosphatidylserine (PS) binding protein (protein, UniProt P08758 2-320, looked up)
Annexin A5: AQVLRGTVTDFPGFDERADAETLRKAMKGLGTDEESILTLLTSRSNAQRQEISAAFKTLFGRDLLDDLKSELTGKFEKLIVALMKPSRLYDAYELKHALKGAGTNEKVLTEIIASRTPEELRAIKQVYEEEYGSSLEDDVVGDTSGYYQRMLVVLLQANRDPDAGIDEAQVEQDAQALFQAGELKWGTDEEKFITIFGTRSVSHLRKVFDKYMTISGFQIEETIDRETSGNLEQLLLAVVKSIRSIPAYLAETLYYAMKGAGTDDHTLIRVMVSRSEIDLFNIRKEFRKNFATSLYSMIKGDTSGDYKKALLLLCGEDD
effect on MG53 resealing of plasma membrane (HEK293 cells; excess (5:1), simultaneous with recombinant human MG53): can prevent resealing of plasma membrane
